Assays:
P70S6 kinase (T412E) = biological target: T1, P70S6 kinase (T412E) (Homo sapiens, UniProt P23443, T412E); assay: P70s6 radiometric assay; format: biochemical; settings: ATP approximately 15 μM; enzyme 2 nM; read-out: IC50 (anti-P70S6K activity)
T1 construct: purchased Upstate 14-486
Description: P7086 enzyme is bought from Upstate and used at 2 nM in the assay.
In the phosphoryl transfer reaction, the ^33P-γ phosphate from ATP is transferred to the serine residue. The reaction mixture is transferred to a phosphocellulose filter plate where the peptide binds and the unused ATP is washed away. After washing, scintillant is added and the incorporated activity measured by scintillation counting.
S6 kinase substrate cocktail from Upstate (#20-122)
• 10 mM MOPS pH 7.0 • 0.1 mg/ml BSA • 0.001% Brij-35 • 0.5% glycerol • 0.2 mM EDTA • 10 mM MgCl2 • 0.01% β-mercaptoethanol • Made as a 10× stock, stored at […] in 2 ml aliquots • 15 μM ATP
ATP will break down over time, keep on ice as far as possible and use small aliquots to ensure the stock is fresh. • γ^33P-ATP APBiotech (BF1000) • 12.5% orthophosphoric acid • 0.5% orthophosphoric acid • Microscint 20 (Packard) Assay Preparation • Enzyme mix (per 1 ml—100 assay points): • 743.75 μl H2O • […] • 3.75 μl 10 mM ATP • 2.5 μl enzyme • Substrate mix (per 1 ml—100 assay points): • 250 μl S6 cocktail substrate • 750 μl H2O • 3.5 μl ^33P-ATP (BF1000 from APBiotech)
Compounds—prepare a dilution curve in DMSO in a polypropylene 96 well plate to 40× final assay concentration (final DMSO 2.5%).
In a polypropylene 96 well plate add in order: • 5 μl compound • 10 μl substrate mix • 10 μl enzyme mix
Final ATP concentration is approximately 15 μM. KM for ATP calculated to 47 uM radiometrically. Controls are “no compound” (DMSO only) and “no enzyme” (use 10 μl of the enzyme mix prior to adding enzyme). Cover with a plate seal (TopSeal A—Packard) or plastic lid from filter plate (moderate radiation barrier). Mix by gentle shaking. Incubate at room temperature for 50 minutes. Stop the reaction by adding 20 μl of 2% orthophosphoric acid.
Pre-wet the wells of a Millipore MAPH NOB plate with 50 μl of 0.5% orthophosphoric acid wash buffer. Filter the liquid through on a Millipore vacuum filtration unit. Transfer the whole of the stopped reaction to the wells. Filter through. Wash twice with 200 μl of 0.5% orthophosphoric acid wash buffer. Vacuum to near dryness. Remove the plate support and allow to the filters to dry further on tissue paper. Snap the plate into an adapter for the Packard TopCount. Add 20 μl of Microscint 20 scintillant, seal with a sheet of Topseal A and count for 30 s on the TopCount.
The compounds of examples 4, 13, 21, 22, 23, 42, 47, 71, 84, 85 and 98 were tested for anti-P70S6K activity (assay as described above): […]

ROCK-II (h) = ROCK-II (h) (Homo sapiens, UniProt O75116); assay: ROCK-II (h) assay (radiometric, 33P-ATP filtermat); format: biochemical; settings: read-out: IC50 (anti-ROCK-II activity)
Chain of ROCK-II (h) (O75116 whole entry): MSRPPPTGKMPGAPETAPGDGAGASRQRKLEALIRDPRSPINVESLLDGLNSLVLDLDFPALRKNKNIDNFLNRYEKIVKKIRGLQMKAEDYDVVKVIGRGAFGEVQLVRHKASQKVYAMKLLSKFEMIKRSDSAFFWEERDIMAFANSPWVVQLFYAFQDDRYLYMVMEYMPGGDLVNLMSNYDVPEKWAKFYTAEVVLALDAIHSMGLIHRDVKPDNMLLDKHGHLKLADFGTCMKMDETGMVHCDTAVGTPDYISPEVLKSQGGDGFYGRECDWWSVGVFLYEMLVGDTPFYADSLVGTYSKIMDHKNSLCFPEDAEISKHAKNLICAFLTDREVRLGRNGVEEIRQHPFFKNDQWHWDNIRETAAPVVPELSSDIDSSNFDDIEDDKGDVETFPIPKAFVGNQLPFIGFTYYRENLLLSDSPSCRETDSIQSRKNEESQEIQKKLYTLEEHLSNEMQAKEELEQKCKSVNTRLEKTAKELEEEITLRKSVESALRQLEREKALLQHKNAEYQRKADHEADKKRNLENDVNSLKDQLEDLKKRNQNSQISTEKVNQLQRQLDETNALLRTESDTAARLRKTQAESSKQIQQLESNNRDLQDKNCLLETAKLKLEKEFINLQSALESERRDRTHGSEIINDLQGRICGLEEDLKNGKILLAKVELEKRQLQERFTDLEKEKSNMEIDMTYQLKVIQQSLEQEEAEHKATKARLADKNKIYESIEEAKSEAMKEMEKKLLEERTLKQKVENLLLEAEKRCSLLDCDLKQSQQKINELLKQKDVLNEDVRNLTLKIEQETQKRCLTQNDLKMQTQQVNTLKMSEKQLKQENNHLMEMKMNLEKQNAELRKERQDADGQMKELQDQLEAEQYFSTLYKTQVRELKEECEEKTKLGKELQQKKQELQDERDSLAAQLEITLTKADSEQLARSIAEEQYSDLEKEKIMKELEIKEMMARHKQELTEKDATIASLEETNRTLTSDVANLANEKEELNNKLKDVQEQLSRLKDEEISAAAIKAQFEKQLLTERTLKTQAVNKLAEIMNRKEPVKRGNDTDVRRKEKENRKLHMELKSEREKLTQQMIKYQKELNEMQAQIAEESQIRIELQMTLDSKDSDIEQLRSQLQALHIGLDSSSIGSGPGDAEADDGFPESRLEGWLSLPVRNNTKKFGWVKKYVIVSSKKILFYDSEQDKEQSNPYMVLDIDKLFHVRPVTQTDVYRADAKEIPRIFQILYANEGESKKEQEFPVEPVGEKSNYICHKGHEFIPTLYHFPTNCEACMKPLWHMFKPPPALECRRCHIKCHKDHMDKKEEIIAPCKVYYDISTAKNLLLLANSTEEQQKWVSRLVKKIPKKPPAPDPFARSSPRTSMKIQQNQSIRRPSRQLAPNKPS
Description: ROCK-II (h) Assay Protocol
In a final reaction volume of 25 μl, ROCK-II (h) (5-10 mU) is incubated with 50 mM Tris pH 7.5, 0.1 mM EGTA, 30 μM […], 10 mM MgAcetate and [γ-^33P-ATP] (specific activity approx. 500 cpm/pmol, concentration as required). The reaction is initiated by the addition of the MgATP mix. After incubation for 40 minutes at room temperature, the reaction is stopped by the addition of 5 μl of a 3% phosphoric acid solution. 10 μl of the reaction is then spotted onto a P30 filtermat and washed three times for 5 minutes in 75 mM phosphoric acid and once in methanol prior to drying and scintillation counting.
The compounds of examples 14, 22, 23, 57, 59 and 84 were tested for anti-ROCK-II activity (assay as described above): […]

rat MM1 hepatoma cells = settings: cited from earlier work
MM1 cells = settings: continuous delivery using osmotic pumps; syngeneic rats; cited from earlier work
[1] = test system: isolated rabbit urinary bladder smooth muscle; settings: cited from earlier work

T1 sequence (P23443 1-421 T412E limits assumed): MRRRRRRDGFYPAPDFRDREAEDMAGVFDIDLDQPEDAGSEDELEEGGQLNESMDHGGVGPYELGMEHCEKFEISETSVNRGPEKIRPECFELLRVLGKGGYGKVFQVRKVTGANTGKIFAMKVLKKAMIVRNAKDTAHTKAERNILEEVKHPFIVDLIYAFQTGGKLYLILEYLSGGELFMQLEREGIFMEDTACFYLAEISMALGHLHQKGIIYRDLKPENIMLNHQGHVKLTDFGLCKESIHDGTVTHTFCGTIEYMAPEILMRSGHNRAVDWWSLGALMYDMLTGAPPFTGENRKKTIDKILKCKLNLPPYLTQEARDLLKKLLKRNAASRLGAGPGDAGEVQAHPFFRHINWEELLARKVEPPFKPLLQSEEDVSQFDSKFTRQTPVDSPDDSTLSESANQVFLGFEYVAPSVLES

Row | Structure (SMILES) | IC50 (P70S6 kinase (T412E)) | IC50 (ROCK-II (h)) | also measured
1 | Clc1ccc(C(c2ccc(-c3cn[nH]c3)cc2)N2CCNCC2)cc1 (stereo not drawn) [Example 57, 1-{(4-Chloro-phenyl)-[4-(1H-pyrazol-4-yl)-phenyl]-methyl}-piperazine] | – | < 100 nM | –
2 | NCC(c1ccc(-c2cn[nH]c2)cc1)c1ccc(Cl)c(Cl)c1 (stereo not drawn) [Example 98, 2-(3,4-Dichloro-phenyl)-2-[4-(1H-pyrazol-4-yl)-phenyl]-ethylamine] | < 100 nM | – | –
3 | NCCC(c1ccc(-c2cn[nH]c2)cc1)c1ccc(Cl)c(Cl)c1 (stereo not drawn) [Example 13, 3-(3,4-Dichloro-phenyl)-3-[4-(1H-pyrazol-4-yl)-phenyl]-propylamine] | < 100 nM | – | –
4 | CNCC(c1ccc(Cl)cc1)c1ccc(-c2cn[nH]c2)cc1 (stereo not drawn) [Example 21, {2-(4-Chloro-phenyl)-2-[4-(1H-pyrazol-4-yl)-phenyl]-ethyl}-methyl-amine] | < 100 nM | – | –
5 | Clc1ccc(C2(c3ccc(-c4cn[nH]c4)cc3)CCNCC2)cc1Cl [Example 85, 4-(3,4-Dichloro-phenyl)-4-[4-(1H-pyrazol-4-yl)-phenyl]-piperidine] | < 100 nM | – | –
6 | C[C@@H](N)[C@H]1CC[C@H](C(=O)Nc2ccncc2)CC1 [Example Y-27632] | – | – | Rho-mediated activation of actomyosin (rat MM1 hepatoma cells): blocked; invasive activity of MM1 cells (rat MM1 hepatoma cells): blocked; dissemination of MM1 cells (MM1 cells): considerably reduced; bethanechol-evoked contractions [1]: attenuates
7 | CNCC(c1ccc(Oc2cnccn2)cc1)c1ccc(-c2cn[nH]c2)cc1 (stereo not drawn) [Example 47, Methyl-{2-[4-(pyrazin-2-yloxy)-phenyl]-2-[4-(1H-pyrazol-4-yl)-phenyl]-ethyl}-amine] | < 100 nM | – | –
8 | NCC(O)(c1ccc(Cl)cc1)c1ccc(-c2cn[nH]c2)cc1 (stereo not drawn) [Example 84, 2-Amino-1-(4-chloro-phenyl)-1-[4-(1H-pyrazol-4-yl)-phenyl]-ethanol] | < 100 nM | < 100 nM | –
9 | Clc1ccc(C2(c3ccc(-c4cn[nH]c4)cc3)CCNCC2)cc1 [Example 14, 4-(4-Chloro-phenyl)-4-[4-(1H-pyrazol-4-yl)-phenyl]-piperidine] | – | < 100 nM | –

Further lines, with some results ahead:

Row | IC50 (P70S6 kinase (T412E)) | IC50 (ROCK-II (h)) | Structure (SMILES) | also measured
10 | < 100 nM | – | CNCC(c1ccc(Cl)cc1)c1ccc(-c2cn[nH]c2)cc1 (stereo not drawn) [Example 42, {2-(4-Chloro-phenyl)-2-[4-(1H-pyrazol-4-yl)-phenyl]-ethyl}-methyl-amine] | –
11 | < 100 nM | – | CNCC(Oc1ccc(Cl)cc1)c1ccc(-c2cn[nH]c2)cc1 (stereo not drawn) [Example 71, {2-(4-Chloro-phenoxy)-2-[4-(1H-pyrazol-4-yl)-phenyl]-ethyl}-methyl-amine] | –
12 | < 100 nM | < 100 nM | CNC[C@H](c1ccc(Cl)cc1)c1ccc(-c2cn[nH]c2)cc1 [Example 23, {2-(4-Chloro-phenyl)-2-[4-(1H-pyrazol-4-yl)-phenyl]-ethyl}-methyl-amine (S)] | –
13 | < 100 nM | < 100 nM | CNC[C@@H](c1ccc(Cl)cc1)c1ccc(-c2cn[nH]c2)cc1 [Example 22, {2-(4-Chloro-phenyl)-2-[4-(1H-pyrazol-4-yl)-phenyl]-ethyl}-methyl-amine (R)] | –
14 | < 100 nM | – | NCC(c1ccc(Cl)cc1)c1ccc(-c2cn[nH]c2)cc1 (stereo not drawn) [Example 4, 2-(4-Chloro-phenyl)-2-[4-(1H-pyrazol-4-yl)-phenyl]-ethylamine] | –
15 | – | < 100 nM | CNCCC(Oc1cccc(Cl)c1)c1ccc(-c2cn[nH]c2)cc1 (stereo not drawn) [Example 59, {3-(3-Chloro-phenoxy)-3-[4-(1H-pyrazol-4-yl)-phenyl]-propyl}-methyl-amine] | –
